# In patent US20250009844A1, “MATURATION OF MUCOSAL DEFENSE AND GUT/LUNG FUNCTION IN THE PRETERM INFANT” (Novozymes A/S, priority 2017, published 2025):
# Entries after “also recorded” stand apart in the source; their conditions may differ. No end group written: not given here.
# Columns and labels:
# [1] = tested on: SCID mice; assay: Therapeutic, murine, 14 weeks, CD4+CD25+ T cell transfer induced colitis model (Example 4); format: in vivo
# Text: Treatment regime: 70 female BALB/c mice housed in groups of five per cage were allocated to 7 different treatment groups. Colitis was induced in SCID mice by transplantation of CD4+CD25 Tcells from BALB/c mice. Lymphocytes isolated from spleen and lymph nodes from BALB/c mice were subjected to negative selection of CD4+Tcells. Afterwards, CD4+CD25+cells were positively isolated by binding to the beads from the CD4+Tcell suspensions and the CD4+CD25—were collected from the supernatant. The animals were treated with hBD-2, 0.1 mg/kg s.c. once daily 86consecutive days from day 7 (OD); 1 mg/kg s.c. OD or 3 mg/kg s.c. OD;with mouse anti TNFa 100 μg/mouse s.c. twice weekly (enbrel); with dexamethasone 0.3 mg/kg intraperitoneally OD (dex); with PBS s.c. as vehicle from day 7 and 86 consecutive days (vehicle) or sham treated (sham).
# Treatment groups: • 1. 0.1 mg/kg hBD-2, once daily subcutaneously (n=11) • 2. 1 mg/kg hBD-2, once daily subcutaneously (n=11) • 3. 3 mg/kg hBD-2, once daily subcutaneously (n=11) • 4. PBS (hBD-2 vehicle), once daily subcutaneously (n=11) • 5. 0.3 mg/kg Dexamethasone, once daily intraperitoneally (n=11) • 6. 100 μg/mouse soluble human 75-kilodalton TNF receptor linked to Fc portion of IgG1 (Enbrel), twice a week subcutaneously (n=11) • 7. Sham treated group (n=6)
# Clinical assessment was based on body weight loss, stool consistency and presence of blood per rectum. The animals were sacrificed on day 95 and colon removed for assessment of weight and myeloperoxidase activity.
# [2] = tested on: PBMC cells; assay: PBMC cell viability, Alamar Blue, 24 hours (Example 8); format: cell-based, human; settings: 1, 10 and 40 μg/ml, 0.6 and 20.0 pg/ml LPS
# Method: FIG. 39. Cell viability of PBMC cells following exposure for 24 hours to Alamar Blue and HD5, hBD-1, hBD-2, hBD-3 and hBD-4 at concentrations of 1, 10 and 40 μg/ml.
# PBMC cell viability following exposure for 24 hours to Alamar Blue and HD5,hBD-1, hBD-2, hBD-3 and hBD-4 at concentrations of 1, 10 and 40 μg/ml at 0.6 and 20.0 pg/ml LPS respectively (FIG. 39).
# [3] = tested on: neonatal rat model; settings: cited from earlier work
# [4] = tested on: gut epithelial cell lines; settings: cited from earlier work
# [5] = tested on: bacteria localization at the surface of the intestinal mucosa; assay: Localization of bacteria by FISH with mucin immunostaining, lysis zone (Example 14); format: in vivo; settings: orally administered; compared with mice on a low fat or western diet
# Method: Immunostaining of mucins and localization of bacteria by FISH Mucus immunostaining was paired with fluorescent in situ hybridization (FISH), as previously described in order to analyze bacteria localization at the surface of the intestinal mucosa. Briefly, colonic tissues (proximal colon, 2nd cm from the cecum) without fecal material were placed in methanol-Carnoy's fixative solution (60% methanol, 30% chloroform, 10% glacial acetic acid) for a minimum of 3 hours at room temperature. Tissues were then washed in methanol 2×30 min, ethanol 2×15 min, ethanol/xylene (1:1), 15 min and xylene 2×15 min, followed by embedding in Paraffin with a vertical orientation. Five μm sections were performed and dewax by preheating at 60° C. for 10 min, followed by xylene 60° C. for 10 min, xylene for 10 min and 99.5% ethanol for 10 minutes. Hybridization step was performed at 50° C. overnight with EUB338 probe (5′-GCTGCCTCCCGTAGGAGT-3′, with a 5′ labeling using Alexa 647) diluted to a final concentration of 10 μg/mL in hybridization buffer (20 mM Tris-HCl, pH 7.4, 0.9 M NaCl, 0.1% SDS, 20% formamide). After washing 10 min in wash buffer (20 mM Tris-HCl, pH 7.4, 0.9 M NaCl) and 3×10 min in PBS, PAP pen (Sigma-Aldrich) was used to mark around the section and block solution (5% fetal bovine serum in PBS) was added for 30 min at 4° C. […]
# [6] = tested on: microbiota of the intestine; assay: Prophylactic high fat diet murine model, 16S microbial analyses (Example 1); format: in vivo, mice
# Text: The overall experimental design is shown in FIG. 1, top panel “Prophylactic study”. Mice: Mice were housed in trios, 4 cages per group. Feed intake was registered daily just before lights were turned off at 6 pm. Individual mice were subjected to experimental procedures in altered order both group and cage wise. Mice were kept at room temperature under a 12-hour light/dark cycle at SPF standard conditions. Diets: For dosing, the average weight was estimated to be 25 grams per mouse. Mice eat approximately 3 grams of feed per mouse per day.
# Treatment regime: Mice were fed either a high fat diet (HFD) or a low fat (LF) control diet. The HFD contained 4 subgroups; a) hBD-2, b) HD5, c) hBD-2/HD5 and d) standard HFD without supplementation of defensins. Defensin concentration was 1,2 mg hBD-2 per kg mouse per day. HD5 was given in equimolar concentration to hBD-2.
# (§1) Microbial analyses were carried out to study the microbiota of the intestine. Longitudinal 16S characterization was conducted on 4 paired samples from 60 mice, 240 samples in total. Each mouse was sampled prior to diet change, 1 week post diet change, 4 weeks post diet change and at termination, thus ensuring a thorough characterization of the faecal microbiota as a result of defensin treatment.
# [7] = Therapeutic high fat diet model in diet-induced obese mice, weight and fat percentage (Example 2); format: in vivo
# Text: (§2) The overall design of the study is shown in FIG. 1, lower panel, “Therapeutic study”. Mice and diets. The experiment elucidates the effect of hBD-2 and HD5 on the microbiota in diet-induced obese mice. A run-in period of 13 weeks where mice were fed a very HFD (60% energy from fat) preceded the intervention. Only mice meeting the criteria of a minimum of 12 gram weight gain (approximately 50% of initial bodyweight) during the run-in period were included in the final analyses. […] They were exposed to all experimental tests, but excluded from the analyses.
# (§3) Treatment regimen. Before the intervention all mice were MR scanned. Cages of mice were allocated to experimental groups based on their fat mass. All subsequent measures were paired with data from the same mouse before the intervention. A LFD (low fat diet) reference group was running in parallel. As controls for the intervention 2 additional groups were included: a) very HFD and b) LFD. Experimental mice stayed on the very HFD during the intervention. The mice were on the experimental diet for 10 weeks. They were co-housed throughout the experiment, 4 mice per cage, 3 cages per group. All tests ran over 3 days, 1 cage per group per day.
# [8] = tested on: microbiota of the intestine; assay: Therapeutic high fat diet model in diet-induced obese mice, 16S microbial analyses (Example 2); format: in vivo
# Text: as §2, §3, §1
# [9] = tested on: BALB/c mice; assay: Murine model of acute graft versus host disease, oral HD5 (Example 13); format: in vivo
# Method: Treatment regime: 22 female BALB/c mice were irradiated with 4.5 Gy (2×498 sec) at intervals of at least 4 hours on day 0. Bone marrow was harvested: hind limbs harvested from 2 female WT C57BL/6 mice aseptically. Skeletal muscle was removed and epiphysis cut away. Lumen of bone flushed with PBS and cells pelleted and taken up. Harvest of T-cells: spleens from 2 female WT C57BL/6 mice were meshed through a […] cell strainer into a PBS filled dish. Cells were taken up in PBS and transferred into a 50 mL falcon tube and spun down. Cells were taken up in 1 mL PBS and 20 μL of CD4 microbead +20 μL CD8 microbeads per spleen added for incubation for 20 min at 4 degrees C. Cells were washed with PBS and applied to MACS separation in order to positively select CD4+ and CD8+ cells. Positively selected T-cells were counted and taken up. Transplantation: directly after the second irradiation, all WT BALB/c recipient mice were injected with 5×1.000.000 BM cells (50 μL) i.v. into the retroorbital venous plexus under isoflurane anesthesia. 22 BALB/c mice were treated with 1.2 mg of HD5/kg BW/day; 1.2 mg of hBD-2/kg BW/day or 100 μL of PBS per day vial oral gavage from day 0-10.
# Survival was monitored for 60 days.
# [10] = same three dosing regimens, sacrifice day 95
substance,measurement,setting,value
Enbrel [reference compound],"Clinical score (body weight loss, stool consistency, blood per rectum)","[1]; hBD-2 1 mg/kg s.c. OD, Dexamethasone 0.3 mg/kg i.p. OD, Enbrel 100 μg/mouse s.c. twice weekly, from day 7",statistically significant and similar effect on clinical score
same,Colon weight,[1]; [10],statistically significant and similar effect on colon weight
same,Myeloperoxidase activity in intestinal tissue,[1]; [10],statistically significant and similar effect
human beta defensin 1 (DHYNCVSSGGQCLYSACPIFTKIQGTCYRGKAKCCK; ends and bridges not checked; cysteine pairing not given here; listed as Homo sapiens) [hBD-1],Toxicity (PBMC cell viability),[2],not toxic irrespectively of concentration; also recorded: not to be toxic
human beta defensin 3 (GIINTLQKYYCRVRGGRCAVLSCLPKEEQIGKCSTRGRKCCRRK; ends and bridges not checked; cysteine pairing not given here; listed as Homo sapiens) [hBD-3],Toxicity (PBMC cell viability),[2],profoundly increasing toxicity; also recorded: toxic
same,Incidence of NEC,[3],decrease the incidence of NEC
same,Toxicity,[4],not to be toxic
human beta defensin 4 (ELDRICGYGTARCRKKCRSQEYRIGRCPNTYACCLRK; ends and bridges not checked; cysteine pairing not given here; listed as Homo sapiens) [hBD-4],Toxicity (PBMC cell viability),[2],moderately increasing toxicity; also recorded: moderately toxic
human intestinal alpha defensin 5 (ATCYCRTGRCATRESLSGVCEISGRLYRLCCR; listed as Homo sapiens) [HD5],Toxicity (PBMC cell viability),[2],not toxic irrespectively of concentration; also recorded: not to be toxic
same,Distance from the intestinal lining to bacterial population (lysis zone),[5],profound effect on the distance
same,"Microbial presence and abundance (unifrac, genus analysis)","[6]; prophylactic oral defensin in HFD, 1,2 mg hBD-2 per kg per day, HD5 equimolar, mix 50%+50%",affected primarily the microbial abundance
same,Abundance of Allobaculum,"[6]; small intestine, prophylaxis, p<0.02",statistically significant increase of abundance of Allobaculum
same,Fat percentage,"[7]; 4 weeks after dietary change, HFD plus HD5 vs HFD control, p=0.009",significantly lower fat percentage
same,"Fat percentage, course",[7]; HFD plus HD5 group after dietary intervention,tendency of decreasing fat percentage
same,Weight gain,"[7]; after dietary intervention, HFD plus HD5 vs HFD control, p<0.05",gained significantly less weight than the HFD control
same,Abundance of Alloprevotella,"[8]; colon, therapeutic intervention, HD5 p<0.02",increased the abundance of Alloprevotella statistically significantly
same,Relative abundance of Bifidobacteriaceae,"[8]; small intestine, hBD-2 p<0.0001",trend towards HD5 increasing the abundance of Bifidobacteriaceae
same,Animals that had died by day 60,"[9]; 1.2 mg/kg BW/day oral gavage day 0-10, HD5 group of 8, PBS six out of eight died",2
same,Mortality,"[9]; 22 mice, oral treatment for 10 days",significant reduction of mortality
